Assays:
Escherichia coli TOP10 = test: ROS production by bEnd.3 endothelial cells upon exposure to E. coli TOP10; format: cell-based; conditions: 8.1×10^7 E. coli cells/ml with either 1.25 mg/ml IgIV, 0.8 mg/ml finger domains, 220 μM Congo red, 220 μM ThT or 1.1 μM tPA
From the text: (§1) Glycated proteins comprising a cross-beta structure and amyloid-β induce inflammatory responses and are believed to contribute to the pathogenesis of certain protein misfolding diseases (diabetes type II, Alzheimer's disease). In general, misfolded proteins induce cellular dysfunction with enhanced expression or activation of inflammatory signals. The effect of misfolded proteins on endothelial cell (dys)function is, for example, measured by determining the levels of reactive oxygen species or nitric oxide or tissue factor in response to misfolded proteins. Human umbilical vein endothelial cells (HUVEC) that are isolated and cultured, according to standard protocols, are used, or other endothelial cells such as the murine microvascular bEnd.3 endothelial cell line. The levels of reactive oxygen species (ROS), like, for example, nitric oxide, are monitored using fluorescent probes, such as CM-H2DCF-DA. Alternatively, cell viability is monitored by standard MTT-assay. The levels of tissue factor expression is determined using a chromogenic assay with purified factor VII, purified factor X and chromogenic substrate S-2765 (Chromogenix), using cell lysates. For example, bEnd.3 cells are seeded at 120,000 cells/well of a 96-well culture dish, and cultured overnight. […]
(§2) To assess production of reactive oxygen species by cultured mouse microvascular bEnd.3 endothelial cells (ECs), cells are seeded at 128,000 cells/well of a 96-well plate (Costar, 3904). […] For the analysis of ROS production, 10 μl of tester samples and controls are added to separate wells, and fluorescence is measured every two minutes for 70 minutes upon excitation at 488 nm with the emission wavelength set to 538 nm. […]

S. aureus Newman [1] = test: ROS production by bEnd.3 endothelial cells upon exposure to S. aureus Newman; format: cell-based, Staphylococcus aureus; conditions: 1.13×10^8 S. aureus cells/ml with either 1.25 mg/ml IgIV, 0.8 mg/ml finger domains, 220 μM Congo red, 220 μM ThT or 1.1 μM tPA
From the text: as §1, §2

S. aureus Newman [2] = test: Binding of dyes to S. aureus Newman by visual inspection; design: species or system Staphylococcus aureus; conditions: S. aureus Newman after incubation with Thioflavin T, Congo red, tPA and IgIV
Method: (§3) Staphylococcus aureus Newman, which was a kind gift of Dr. Jos van Strijp and Dr Kok van Kessel (Dept. of Microbiology, University Medical Center Utrecht, the Netherlands) was plated on a blood plate from a stock stored at −70° C., and incubated overnight at 37° C. The plate was stored at 4° C. Escherichia coli strain TOP10 (Invitrogen, 44-0301) was plated on agar with Luria broth medium from a −80° C. glycerol stock, and incubated overnight at 37° C. The plate was stored at 4° C. Overnight cultures of 5 ml in Luria broth medium were grown at 37° C. with vigorous shaking and aeration, by streaking a single colony with the tip of a pipet and transferring the tip to the medium in a 15-ml tube. The cell density in overnight cultures was determined by measuring the absorbance at 600 nm (A600=1 is equivalent with 0.8×10^9 cells/ml). Cells were pelleted by centrifugation for one minute at 16,000*g or for ten minutes at 3,000*g. Medium was discarded. One half of the cells were resuspended in PBS in 1/10 of the original medium volume (10× concentration of the cells) by pipetting and swirling. These cells were used as reference cells. […]
(§4) Binding of cross-beta structure binding compounds to E. coli TOP10 and S. aureus Newman after incubation of the bacteria with Thioflavin T, Congo red, tPA and IgIV, as described in the Materials & Methods section, was determined in two ways. […]

E. coli TOP10 = test: Binding of dyes to E. coli TOP10 by visual inspection; design: species or system Escherichia coli; conditions: E. coli TOP10 after incubation with Thioflavin T, Congo red, tPA and IgIV
Method: as §3, §4

[3] = system: protein and peptide aggregates with cross-β structure conformation; test: ELISA binding to immobilized peptides with cross-β structure conformation; conditions: immobilized Aβ, FP13, TTR11, LAM12 or IAPP; GST-tagged F domains
From the text: FIG. 2: Binding of tPA, factor XII, fibronectin and finger domains thereof to compounds with cross-β structure. Panels A-C: Full-length purified tPA (Panel A), factor XII (Panel B) and fibronectin (Panel C) bind to immobilized peptides with cross-β structure conformation, in an ELISA.
Previously, we established that tissue-type plasminogen activator specifically interacts with protein and peptide aggregates that comprise a cross-β structure conformation, a structural element found in amyloid-like polypeptide assemblies (Bouma et al., 2003; Kranenburg et al., 2002). Now, we expanded this analysis to other proteins that resemble tPA domain architecture and we separated domains of tPA. Binding of full-length tPA, factor XII and fibronectin, as well as of fibronectin type I (finger, F) domains of tPA and factor XII and F4-5 of fibronectin, to protein and peptide aggregates with cross-β structure conformation was analyzed in an ELISA. […] Binding of tPA and factor XII was established for immobilized amyloid-β(1-40) (Aβ) with amyloid-like properties, fibrin peptide FP13, that encompasses the tPA activating sequence 148KRLEVDIDIKIR160 (SEQ ID NO:——————) of the fibrin α-chain, TTR11, which is an 11 amino-acid residues peptide from transthyretin that forms cross-β structure, and LAM12, which is a 12 amino-acid residues peptide from laminin that forms cross-β structure (FIG. 2, Panels A and B). Negative controls were freshly dissolved, monomerized Aβ and non-amyloid murine islet amyloid polypeptide (mIAPP). For fibronectin, human amyloid IAPP is depicted instead of LAM12 (FIG. 2, Panel C).

| Molecule | effect on ROS production by bEnd.3 ECs, co-incubation (Escherichia coli TOP10) | effect on ROS production by bEnd.3 ECs, co-incubation (S. aureus Newman [1]) | binding of dye to bacterium cells, visual inspection (S. aureus Newman [2]) | binding of dye to bacterium cells, visual inspection (E. coli TOP10) | binding to cross-β structure rich compounds in ELISA [3] |
| --- | --- | --- | --- | --- | --- |
| Nc1c(/N=N/c2ccc(-c3ccc(/N=N/c4cc(S(=O)(=O)O)c5ccccc5c4N)cc3)cc2)cc(S(=O)(=O)O)c2ccccc12 [Congo red] | reverse ROS production | strongly inhibits ROS expression | intense red | – | – |
| Cc1ccc2c(c1)sc(-c1ccc(N(C)C)cc1)[n+]2C.[Cl-] [Thioflavin T] | to some extent | slightly decrease ROS production | – | bound to the cells | – |
| fibronectin F4-5: recombinant fibronectin type I domains 4-5 of fibronectin with carboxy terminal GST-tag | – | – | – | – | bind specifically |
| fibronectin: full-length purified fibronectin | – | – | – | – | bind specifically |
| tPA: tissue-type plasminogen activator (Actilyse, Boehringer-Ingelheim) | not able to reduce ROS production | does not influence S. aureus induced ROS production | – | – | bind specifically |
| factor XII: full-length purified factor XII (protein, UniProt P00748 1-615, looked up, full-length) MRALLLLGFLLVSLESTLSIPPWEAPKEHKYKAEEHTVVLTVTGEPCHFPFQYHRQLYHKCTHKGRPGPQPWCATTPNFDQDQRWGYCLEPKKVKDHCSKHSPCQKGGTCVNMPSGPHCLCPQHLTGNHCQKEKCFEPQLLRFFHKNEIWYRTEQAAVARCQCKGPDAHCQRLASQACRTNPCLHGGRCLEVEGHRLCHCPVGYTGAFCDVDTKASCYDGRGLSYRGLARTTLSGAPCQPWASEATYRNVTAEQARNWGLGGHAFCRNPDNDIRPWCFVLNRDRLSWEYCDLAQCQTPTQAAPPTPVSPRLHVPLMPAQPAPPKPQPTTRTPPQSQTPGALPAKREQPPSLTRNGPLSCGQRLRKSLSSMTRVVGGLVALRGAHPYIAALYWGHSFCAGSLIAPCWVLTAAHCLQDRPAPEDLTVVLGQERRNHSCEPCQTLAVRSYRLHEAFSPVSYQHDLALLRLQEDADGSCALLSPYVQPVCLPSGAARPSETTLCQVAGWGHQFEGAEEYASFLQEAQVPFLSLERCSAPDVHGSSILPGMLCAGFLEGGTDACQGDSGGPLVCEDQAAERRLTLQGIISWGSGCGDRNKPGVYTDVAYYLAWIREHTVS | – | – | – | – | bind specifically |

— patent US20060292683A1, “Cross-beta structures on microbial organisms” (Crossbeta Biosciences B.V., priority 2005, published 2006)
